Experimental data from US20240245057A1, “INSECTICIDAL COMPOSITION FOR AGRICULTURAL OR HORTICULTURAL USE AND METHOD OF CONTROLLING AGRICULTURAL OR HORTICULTURAL PEST” (SDS BIOTECH K.K, priority 2021, published 2024).
Counter-ions that a name gives are not always drawn. Like-named read-outs stand apart in the source and are kept apart here.

How the values were obtained:
Assay type in all cases: in vivo
[1] = system: 3rd instar larvae of Spodoptera litura; conditions: for insecticidal efficacy against the 3rd instar larvae of Spodoptera litura (in words): hydrochloride alone; for Number of dead insects/Number of test insects: hydrochloride alone 10 μg/g Feed, insecticidal protein Absent, 5 days
Experimental: Each artificial feed containing or free of each substance thus obtained was placed on a petri dish (90 mm in diameter and 15 mm in height), and ten 3rd instar larva of Spodoptera litura reared in a rearing room at 25° C. were released into each petri dish (3 replicates). Each petri dish was closed and kept at 25° C. for 5 days.
After that, the number of dead insects was macroscopically counted by observing the inside of the petri dish. The LC50 values were calculated by the probit method, and the increase in insecticidal activity due to the addition of prumycin or kanosamine was calculated based on the same formula as in Test Example 4 above.

[2] = system: 3rd instar larvae of Helicoverpa armigera; conditions: for insecticidal efficacy against the 3rd instar larvae of Helicoverpa armigera (in words): hydrochloride alone; for Number of dead insects/Number of test insects: 4 days
From the text: Each insecticidal protein solution obtained was admixed with prumycin hydrochloride prepared in Production Example 1 or kanosamine hydrochloride (Sigma-Aldrich Japan, LLC.) at a prescribed concentration to prepare a solution containing the insecticidal protein and prumycin hydrochloride or kanosamine hydrochloride. The obtained solution was admixed with artificial feed (Insecta LFS (manufactured by Nosan Corporation)) as shown in Tables 10 to 13 so that the content of each insecticidal protein was 0.063 to 8 μg/g of the artificial feed and the content of prumycin hydrochloride or kanosamine hydrochloride was 10 μg/g of the artificial feed. In this way, each artificial feed containing the insecticidal protein and prumycin hydrochloride or kanosamine hydrochloride was prepared. In addition, the above-described insecticidal protein solution, prumycin hydrochloride, or kanosamine hydrochloride alone was admixed with the artificial feed as shown in Tables 10 to 13 so that the content of each insecticidal protein was 0.063 to 8 μg/g of the artificial feed or the content of prumycin hydrochloride or kanosamine hydrochloride was […] of the artificial feed, respectively. In this way, each artificial feed containing the insecticidal protein, prumycin hydrochloride, or kanosamine hydrochloride alone was prepared. Each artificial feed containing or free of each substance thus obtained was placed on a petri dish (35 mm in diameter and 10 mm in height), and one 3rd instar larva of Helicoverpa armigera reared in a rearing room at 25° C. was released into each petri dish (10 replicates). Each petri dish was closed and kept at 25° ° C. for 4 days.
The number of dead insects was then macroscopically examined by observing the inside of each petri dish, and the LC50 value was calculated by the probit method. Next, based on the following equation, the ratio of the test plot without prumycin hydrochloride or kanosamine hydrochloride to the test plot with prumycin hydrochloride or kanosamine hydrochloride was calculated to determine the increase in insecticidal activity when prumycin hydrochloride or kanosamine hydrochloride was added.

[3] = system: 3rd instar larvae of Spodoptera litura; assay: Test of efficacy against 3rd instar larvae of Spodoptera litura (dried Bt cultures mixed into artificial feed); conditions: for Measured insecticidal rate (%): agent alone, 2 μg/g Feed, 25° C., 5 days; for insecticidal efficacy against the 3rd instar larvae of Spodoptera litura (in words): alone, application concentration of 2 μg/g feed
Experimental: A suspension of dried Btk culture or dried Bta culture was prepared by adding distilled water to the dried Btk culture or dried Bta culture prepared in Preparation Example 1. This suspension was admixed with prumycin hydrochloride prepared in Production Example 1 or kanosamine hydrochloride (Sigma-Aldrich Japan, LLC) at the prescribed concentration to prepare a solution. The obtained solution was admixed with artificial feed (Insecta LFS (manufactured by Nosan Corporation)) as shown in Tables 1 to 6 so that the content of the dried Btk culture or Bta culture was 0.2 to 2 mg/g of the artificial feed and the content of prumycin hydrochloride or kanosamine hydrochloride was 2 μg/g of the artificial feed. The artificial feed containing the dried Btk culture or dried Bta culture mixed with prumycin hydrochloride or kanosamine hydrochloride was placed on a petri dish (90 mm in diameter and 15 mm in height), and ten 3rd instar larvae of Spodoptera litura reared in a rearing room at 25° C. were released into the petri dish (triplicate). Each petri dish was closed and kept at 25° C. for 5 days.
The number of dead insects was then macroscopically counted by observing the inside of the petri dish, and the (measured) insecticidal rate (%) of the number of dead insects to the total number of reared insects was determined.
In addition, the suspension of dried Btk culture alone, the suspension of dried Bta alone, prumycin hydrochloride alone, kanosamine hydrochloride alone, or a combination of prumycin hydrochloride and kanosamine hydrochloride was added to the artificial feed to achieve the application concentration per g of the artificial feed as shown in Tables 1 to 6. Except the above, ten 3rd instar larvae of Spodoptera litura were released into a petri dish (triplicate) and kept at 25° ° C. for 5 days, as in the above Example.
The inside of the petri dish was then observed and the (measured) insecticidal rate (%) was determined in the same way as in the above Example.
The expected theoretical insecticidal rate (%) when treated with the dried Btk culture or dried Bta culture mixed with prumycin hydrochloride or kanosamine hydrochloride was determined by Colby's calculation formula ([…]). […]
The presence or absence of synergistic effect was determined by comparing the theoretical and measured insecticidal rates (%) in the case of using the dried Btk culture or dried Bta culture in combination with prumycin hydrochloride or kanosamine hydrochloride.
Specifically, the case where the measured value was larger than the theoretical value was judged as “having a synergistic effect”, and the case where the measured value was equal to or smaller than the theoretical value was judged as “having no synergetic effect” with respect to the insecticidal rate (%).

[4] = hydrochloride alone 10 μg/g Feed, insecticidal protein Absent

Row | Compound | insecticidal efficacy against the 3rd instar larvae of Spodoptera litura (in words) [1] | Number of dead insects/Number of test insects [1] | insecticidal efficacy against the 3rd instar larvae of Helicoverpa armigera (in words) [2] | Number of dead insects/Number of test insects [2, 4] | Measured insecticidal rate (%) [3] | insecticidal efficacy against the 3rd instar larvae of Spodoptera litura (in words) [3] | Number of dead insects/Number of test insects ([2]; insecticidal protein alone 0.063 μg/g Feed) | Number of dead insects/Number of test insects ([2]; insecticidal protein alone 0.125 μg/g Feed) | Number of dead insects/Number of test insects ([2]; insecticidal protein alone 0.25 μg/g Feed) | Number of dead insects/Number of test insects ([2]; insecticidal protein alone 0.5 μg/g Feed) | Number of dead insects/Number of test insects ([2]; insecticidal protein alone 1 μg/g Feed) | Number of dead insects/Number of test insects ([2]; insecticidal protein alone 2 μg/g Feed)
1 | CC(N)C(=O)NC1COC(O)C(N)C1O [Prumycin hydrochloride, 4-N-D-alanyl-2,4-diamino-2,4-dideoxyarabinose] | no insecticidal efficacy | 0/10 | no insecticidal efficacy | 0/10 | 0.0% | no insecticidal efficacy |  |  |  |  |  | 
2 | Cry1A(c): Bacillus thuringiensis insecticidal protein expressed and purified in E. coli |  |  |  |  |  |  | 0/10 | 0/10 | 0/10 | 1/10 | 6/10 | 7/10
3 | N[C@H]1[C@H](O)[C@@H](CO)OC(O)[C@@H]1O (stereo partly drawn) [Kanosamine hydrochloride, 3-amino-3-deoxy-D-glucopyranose] | no insecticidal efficacy | 0/10 | no insecticidal efficacy | 0/10 | 0.0% | no insecticidal efficacy |  |  |  |  |  | 
